The results in this text go back to patent publication US9469659B2, “Compositions and methods for improving glucose uptake” (Board of Supervisors of Louisiana State University and …, priority 2012, dated 2016).

One data set has as its system 3T3-L1 pre adipocytes. Briefly: Cell toxicity of compounds at various doses. Format: cell-based. How it is done: For the following screens, compounds 1-5 were dissolved in DMSO. 3T3-L1 pre adipocytes were first exposed to different concentrations (5 μM, 10 μM, 20 μM, 50 μM and 100 μM) of the compounds to test for toxicity compared with DMSO control exposure. Exposure to other concentrations was followed until Day 5. Compound 2 was the most toxic at 20 μM on Day 5.

A further data set deals with 3T3-L1 cells. Briefly: Glucose uptake under basal and insulin stimulated conditions (FIG. 2). Format: cell-based. The settings on record: 24 hours exposure. The protocol: Next, glucose uptake by 3T3-L1 cells exposed to compounds 1-5 was determined at 5 μM concentration. Cells were exposed to compounds 1-5 for 24 hours and exposure to DMSO was used as the control group. 2-Deoxy glucose (2-DG) uptake was determined using the analog compounds without serum starving the cells prior to determining glucose uptake. As indicated in FIG. 1 glucose uptake in 3T3-L1 pre-adipocytes was determined by exposing cells to compounds 1-5 for 24 hours without serum starvation. All compounds show significant increase (p<0.05) in glucose uptake under basal conditions compared with the DMSO treated control cells. To confirm these observations glucose uptake was examined under basal and insulin stimulated conditions with cells exposed to compounds 1-5 for 24 hours.

The mark [1] stands for this setting: 5 μM, Day 1, 3T3-L1 pre adipocytes.
The mark [2] stands for this setting: 5 μM, Day 2, 3T3-L1 pre adipocytes.
The mark [3] stands for this setting: 5 μM, Day 3, 3T3-L1 pre adipocytes.
The mark [4] stands for this setting: 5 μM, Day 4, 3T3-L1 pre adipocytes.
Where [5] appears, read: 5 μM, Day 5, 3T3-L1 pre adipocytes.
The mark [6] stands for this setting: 10 μM, Day 1, 3T3-L1 pre adipocytes.
Setting [7] is: 10 μM, Day 2, 3T3-L1 pre adipocytes.
The mark [8] stands for this setting: 10 μM, Day 3, 3T3-L1 pre adipocytes.
Where [9] appears, read: 10 μM, Day 4, 3T3-L1 pre adipocytes.
[10] abbreviates: 10 μM, Day 5, 3T3-L1 pre adipocytes.
The mark [11] stands for this setting: 20 μM, Day 1, 3T3-L1 pre adipocytes.
Where [12] appears, read: 20 μM, Day 2, 3T3-L1 pre adipocytes.
The mark [13] stands for this setting: 20 μM, Day 3, 3T3-L1 pre adipocytes.
Setting [14] is: 20 μM, Day 4, 3T3-L1 pre adipocytes.
Where [15] appears, read: 20 μM, Day 5, 3T3-L1 pre adipocytes.
[16] abbreviates: 50 μM, Day 1, 3T3-L1 pre adipocytes.
The mark [17] stands for this setting: 50 μM, Day 2, 3T3-L1 pre adipocytes.
The mark [18] stands for this setting: 100 μM, Day 1, 3T3-L1 pre adipocytes.
Where [19] appears, read: 100 μM, Day 2, 3T3-L1 pre adipocytes.

On to `CC1(C)OB(c2ccc(NC(C#N)c3cc(-c4ccc(F)cc4)on3)cc2)OC1(C)C` (stereo not drawn) [Compound 1], for which the Cell toxicity was 0% with 3T3-L1 pre adipocytes (setting [1]); 0-5% with 3T3-L1 pre adipocytes (setting [2]); 0-5% in the data set with 3T3-L1 pre adipocytes (setting [3]); 0-5% in the data set with 3T3-L1 pre adipocytes (setting [4]); “≧5%” with 3T3-L1 pre adipocytes (setting [5]); 5-10% in the data set on 3T3-L1 pre adipocytes (setting [6]). The Cell toxicity in the data set on 3T3-L1 pre adipocytes (setting [7]) was 5-10%; in the data set with 3T3-L1 pre adipocytes (setting [8]) it was 5-10%; in the data set with 3T3-L1 pre adipocytes (setting [9]), 5-10%; with 3T3-L1 pre adipocytes (setting [10]) it was 5-10%; with 3T3-L1 pre adipocytes (setting [11]) it was 5-10%; with 3T3-L1 pre adipocytes (setting [12]) it was “≧10%”. The Cell toxicity entry is “≧10%” in the data set on 3T3-L1 pre adipocytes (setting [13]); 10-15% in the data set on 3T3-L1 pre adipocytes (setting [14]); 10-15% in the data set with 3T3-L1 pre adipocytes (setting [15]); 30-40% in the data set with 3T3-L1 pre adipocytes (setting [16]); 90-95% with 3T3-L1 pre adipocytes (setting [17]); over 90% with 3T3-L1 pre adipocytes (setting [18]). Also, the Cell toxicity in the data set with 3T3-L1 pre adipocytes (setting [19]) was 95-100%.

With `CC1(C)OB(c2ccc(NC(C#N)c3cc(-c4ccccc4)on3)cc2)OC1(C)C` (stereo not drawn) [Compound 2], the Cell toxicity is 0% in the data set with 3T3-L1 pre adipocytes (setting [1]); 0-5% with 3T3-L1 pre adipocytes (setting [2]); 0-5% with 3T3-L1 pre adipocytes (setting [3]); 10-20% in the data set with 3T3-L1 pre adipocytes (setting [4]); 10-20% with 3T3-L1 pre adipocytes (setting [5]); 5-10% in the data set on 3T3-L1 pre adipocytes (setting [6]). Also, the Cell toxicity in the data set on 3T3-L1 pre adipocytes (setting [7]) was over 10%; in the data set with 3T3-L1 pre adipocytes (setting [8]), “≧10%”; in the data set on 3T3-L1 pre adipocytes (setting [9]) it was 30-40%; in the data set on 3T3-L1 pre adipocytes (setting [10]), “≧40%”; with 3T3-L1 pre adipocytes (setting [11]), over 10%; in the data set on 3T3-L1 pre adipocytes (setting [12]), 20-30%. The Cell toxicity is 40-50% with 3T3-L1 pre adipocytes (setting [13]); 60-70% in the data set with 3T3-L1 pre adipocytes (setting [14]); 70-80% in the data set with 3T3-L1 pre adipocytes (setting [15]); 30-40% in the data set on 3T3-L1 pre adipocytes (setting [16]); 95-100% in the data set on 3T3-L1 pre adipocytes (setting [17]); over 90% with 3T3-L1 pre adipocytes (setting [18]). Besides, the Cell toxicity in the data set with 3T3-L1 pre adipocytes (setting [19]) is 95-100%. Further, the “Toxicity (in words, ranking among compounds)” value in the data set on 3T3-L1 pre adipocytes (setting [15]) was “most toxic”.

As for `Cc1cc(C(C#N)Nc2ccc(B3OC(C)(C)C(C)(C)O3)cc2)no1` (stereo not drawn) [Compound 3], in the data set with 3T3-L1 cells, the “Glucose uptake under basal and insulin stimulated conditions” value (shortened to “Glucose uptake”) is listed as “most significant increase”. Besides, the Cell toxicity is listed as 0% with 3T3-L1 pre adipocytes (setting [1]); 0-5% in the data set on 3T3-L1 pre adipocytes (setting [2]); 0-5% with 3T3-L1 pre adipocytes (setting [3]); 0-5% with 3T3-L1 pre adipocytes (setting [4]); 0-5% in the data set with 3T3-L1 pre adipocytes (setting [5]); 0-5% with 3T3-L1 pre adipocytes (setting [6]). Besides, the Cell toxicity is on record as over 5% in the data set on 3T3-L1 pre adipocytes (setting [7]); “≧10%” in the data set on 3T3-L1 pre adipocytes (setting [8]); “≧10%” with 3T3-L1 pre adipocytes (setting [9]); “≧10%” in the data set on 3T3-L1 pre adipocytes (setting [10]); 5-10% in the data set with 3T3-L1 pre adipocytes (setting [11]); 15-20% in the data set with 3T3-L1 pre adipocytes (setting [12]). The Cell toxicity with 3T3-L1 pre adipocytes (setting [13]) is given as over 20%; in the data set with 3T3-L1 pre adipocytes (setting [14]), 20-30%; in the data set with 3T3-L1 pre adipocytes (setting [15]), “≧30%”; with 3T3-L1 pre adipocytes (setting [16]), 15-20%; in the data set with 3T3-L1 pre adipocytes (setting [17]), 90-95%; in the data set with 3T3-L1 pre adipocytes (setting [18]) it was 60-70%. Besides, in the data set on 3T3-L1 pre adipocytes (setting [19]), the Cell toxicity is given as 95-100%.

With `N#CC(Nc1ccc([B-](F)(F)F)cc1)c1cc(-c2ccc(F)cc2)on1` (stereo not drawn) [Compound 4], the “Glucose uptake” value in the data set with 3T3-L1 cells is “most significant increase”. For the same compound, the Cell toxicity is 0% in the data set with 3T3-L1 pre adipocytes (setting [1]); 0-5% with 3T3-L1 pre adipocytes (setting [2]); 0-5% with 3T3-L1 pre adipocytes (setting [3]); 0-5% with 3T3-L1 pre adipocytes (setting [4]); 0-5% with 3T3-L1 pre adipocytes (setting [5]); 0-5% with 3T3-L1 pre adipocytes (setting [6]). Also, the Cell toxicity in the data set on 3T3-L1 pre adipocytes (setting [7]) was over 5%; in the data set on 3T3-L1 pre adipocytes (setting [8]), “≧10%”; in the data set with 3T3-L1 pre adipocytes (setting [9]), “≧10%”; with 3T3-L1 pre adipocytes (setting [10]), “≧10%”; in the data set with 3T3-L1 pre adipocytes (setting [11]), 5-10%; with 3T3-L1 pre adipocytes (setting [12]), 10-15%. Besides, the Cell toxicity entry in the data set with 3T3-L1 pre adipocytes (setting [13]) is listed as “≧15%”; in the data set on 3T3-L1 pre adipocytes (setting [14]), “≧15%”; in the data set with 3T3-L1 pre adipocytes (setting [15]), “≧15%”; with 3T3-L1 pre adipocytes (setting [16]), 30-40%; in the data set with 3T3-L1 pre adipocytes (setting [17]) it was 90-95%; in the data set on 3T3-L1 pre adipocytes (setting [18]), over 90%. Further, in the data set with 3T3-L1 pre adipocytes (setting [19]), the Cell toxicity is 95-100%.

Regarding `N#CC(Nc1ccc([B-](F)(F)F)cc1)c1ccco1` (stereo not drawn) [Compound 5], the “Glucose uptake” value in the data set with 3T3-L1 cells is given as “most significant increase”. The Cell toxicity in the data set with 3T3-L1 pre adipocytes (setting [1]) was 0%; with 3T3-L1 pre adipocytes (setting [2]) it was 0-5%; in the data set on 3T3-L1 pre adipocytes (setting [3]) it was 0-5%; in the data set on 3T3-L1 pre adipocytes (setting [4]), 0-5%; with 3T3-L1 pre adipocytes (setting [5]) it was 0-5%; with 3T3-L1 pre adipocytes (setting [6]), 0-5%. In addition, the Cell toxicity in the data set on 3T3-L1 pre adipocytes (setting [7]) is over 5%; with 3T3-L1 pre adipocytes (setting [8]), “≧10%”; with 3T3-L1 pre adipocytes (setting [9]), “≧10%”; in the data set with 3T3-L1 pre adipocytes (setting [10]) it was “≧10%”; in the data set with 3T3-L1 pre adipocytes (setting [11]) it was 5-10%; in the data set on 3T3-L1 pre adipocytes (setting [12]), 10-15%. Besides, the Cell toxicity in the data set with 3T3-L1 pre adipocytes (setting [13]) was 10-15%; in the data set with 3T3-L1 pre adipocytes (setting [14]) it was 10-15%; with 3T3-L1 pre adipocytes (setting [15]), 10-15%; in the data set on 3T3-L1 pre adipocytes (setting [16]), over 15%; in the data set on 3T3-L1 pre adipocytes (setting [17]) it was 90-95%; in the data set on 3T3-L1 pre adipocytes (setting [18]), over 90%. In addition, the Cell toxicity in the data set with 3T3-L1 pre adipocytes (setting [19]) is given as 95-100%.
